According to patent US8993565B2, “(6-oxo-1,6-dihydropyrimidin-2-yl)amide derivatives, preparation thereof and pharmaceutical use thereof as AKT(PKB) phosphorylation inhibitors” (Sanofi, priority 2009, dated 2015):

Assays:
[1] = system: AKT protein phosphorylated on serine 473 (P-AKT-S473); assay: Study of pAKT expression in PC3 human prostate carcinoma cells measured by the MSD Multi-spot Biomarker Detection technique (Test B); assay type: cell-based; conditions: PC-3, inhibition of AKT phosphorylation (P-AKT-S473), MSD sandwich immunoassay, 1 to 2 h incubation, absolute IC50, mean of 2 experiments
Summary of the method: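 Lysate P-AKT-S473 quantified by MSD electrochemiluminescent sandwich immunoassay; inhibition vs DMSO and cell-free background, IC50 averaged over 2 experiments.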

Row | Structure (SMILES) | melting point | IC50 [1]
1 | O=C(Cc1nc(N2CCOCC2)cc(=O)[nH]1)Nc1cccc2c1OCCN2 [Example 143, N-(3,4-dihydro-2H-1,4-benzoxazin-8-yl)-2-[4-(morpholin-4-yl)-6-oxo-1,6-dihydropyrimidin-2-yl]acetamide] | 243 °C | 473 nM
2 | O=C(Cc1nc(N2CCOCC2)cc(=O)[nH]1)N1CCCc2c(Cl)cccc21 [Example 131, 2-[2-(5-chloro-3,4-dihydroquinolin-1(2H)-yl)-2-oxoethyl]-6-(morpholin-4-yl)pyrimidin-4(3H)-one] | 238 °C | 41 nM
3 | O=C(Cc1nc(N2CCOCC2)cc(=O)[nH]1)N1CCc2c(CO)cccc21 [Example 132, 2-{2-[4-(hydroxymethyl)-2,3-dihydro-1H-indol-1-yl]-2-oxoethyl}-6-(morpholin-4-yl)pyrimidin-4(3H)-one] | 234 °C | 533 nM
4 | O=C(Cc1nc(N2CCOCC2)cc(=O)[nH]1)N1c2ccccc2CC1CO (stereo not drawn) [Example 106, 2-{2-[2-(hydroxymethyl)-2,3-dihydro-1 H-indol-1-yl]-2-oxoethyl}-6-(morpholin-4-yl)pyrimidin-4(3H)-one] | 200 °C | 27 nM
5 | CC(C)C(C(=O)Nc1ccc(F)cc1)c1nc(N2CCOCC2)cc(=O)[nH]1 (stereo not drawn) [Example 72, N-(4-fluorophenyl)-3-methyl-2-[4-(morpholin-4-yl)-6-oxo-1,6-dihydropyrimidin-2-yl]butanamide] | 266 °C | 89 nM
6 | CCN(CC)CC1CN(C(=O)Cc2nc(N3CCOCC3)cc(=O)[nH]2)c2ccccc21 (stereo not drawn) [Example 145, 2-(2-{3-[(diethylamino)methyl]-2,3-dihydro-1 H-indol-1-yl}-2-oxoethyl)-6-(morpholin-4-yl)pyrimidin-4(3 H)-one] | 202 °C | 38 nM
7 | CCOc1cccc2c1CCN2C(=O)Cc1nc(N2CCOCC2)cc(=O)[nH]1 [Example 121, 2-[2-(4-ethoxy-2,3-dihydro-1H-indol-1-yl)-2-oxoethyl]-6-(morpholin-4-yl)pyrimidin-4(3H)-one] | 257 °C | 44 nM
8 | CN(C)CC1CN(C(=O)Cc2nc(N3CCOCC3)cc(=O)[nH]2)c2ccccc21 (stereo not drawn) [Example 115, 2-[2-(3-dimethylaminomethyl-2,3-dihydroindol-1-yl)-2-oxoethyl]-6-morpholin-4-yl-3H-pyrimidin-4-one] | 243 °C | 10 nM
9 | O=C(Cc1nc(N2CCOCC2)cc(=O)[nH]1)N1CCc2ccccc2C1 [Example 111, 2-[2-(3,4-dihydroisoquinolin-2(1H)-yl)-2-oxoethyl]-6-(morpholin-4-yl)pyrimidin-4(3H)-one] | 107.5 °C | 301 nM
10 | O=C(Cc1nc(N2CCOCC2)cc(=O)[nH]1)Nc1cccc(OC(F)(F)C(F)F)c1 [Example 75, 2-[4-(morpholin-4-yl)-6-oxo-1,6-dihydropyrimidin-2-yl]-N-[3-(1,1,2,2-tetrafluoroethoxy)phenyl]acetamide] | 229 °C | 69 nM
11 | O=C(Cc1nc(N2CCOCC2)cc(=O)[nH]1)Nc1cc(F)cc(F)c1 [Example 13, N-(3,5-difluorophenyl)-2-[4-(morpholin-4-yl)-6-oxo-1,6-dihydropyrimidin-2-yl]acetamide] | > 260 °C | 71 nM
12 | COCC1Cc2ccccc2N1C(=O)Cc1nc(N2CCOCC2)cc(=O)[nH]1 (stereo not drawn) [Example 120, 2-{2-[2-(methoxymethyl)-2,3-dihydro-1H-indol-1-yl]-2-oxoethyl}-6-(morpholin-4-yl)pyrimidin-4(3H)-one] | 112 to 115 °C | 11 nM
13 | O=C(Cc1nc(N2CCOCC2)cc(=O)[nH]1)Nc1cccc2c1NCCC2 [Example 148, 2-[4-(morpholin-4-yl)-6-oxo-1,6-dihydropyrimidin-2-yl]-N-(1,2,3,4-tetrahydroquinolin-8-yl)acetamide] | 232 °C | 234 nM
14 | CN(C)C[C@H]1CN(C(=O)Cc2nc(N3CCOCC3)cc(=O)[nH]2)c2ccccc21 [Example 136, 2-(2-{(3S)-3-[(dimethylamino)methyl]-2,3-dihydro-1H-indol-1-yl}-2-oxoethyl)-6-(morpholin-4-yl)pyrimidin-4(3H)-one] | 256 °C | 26 nM

Other lines, results leading:

Row | melting point | IC50 [1] | Structure (SMILES)
15 | 216 °C | 133 nM | Cn1c(CC(=O)Nc2cccc(C3CC3)c2)nc(N2CCOCC2)cc1=O [Example 82, N-(3-cyclopropylphenyl)-2-[1-methyl-4-(morpholin-4-yl)-6-oxo-1,6-dihydropyrimidin-2-yl]acetamide]
16 | 244 °C | 43 nM | Cn1c(CC(=O)N2CCc3c(F)cccc32)nc(N2CCOCC2)cc1=O [Example 102, 2-[2-(4-fluoro-2,3-dihydro-1H-indol-1-yl)-2-oxoethyl]-3-methyl-6-(morpholin-4-yl)pyrimidin-4(3H)-one]
17 | 245 °C | 26 nM | Cn1c(CC(=O)Nc2ccc(F)c(C3CC3)c2)nc(N2CCOCC2)cc1=O [Example 86, N-(3-cyclopropyl-4-fluorophenyl)-2-[1-methyl-4-(morpholin-4-yl)-6-oxo-1,6-dihydropyrimidin-2-yl]acetamide]
18 | 223 °C | 124 nM | Cn1c(CC(=O)N2CCc3ccc(F)cc32)nc(N2CCOCC2)cc1=O [Example 124, 2-[2-(6-fluoro-2,3-dihydro-1H-indol-1-yl)-2-oxoethyl]-3-methyl-6-(morpholin-4-yl)pyrimidin-4(3H)-one]
19 | 226 °C | 51 nM | Cn1c(CC(=O)N2CCc3c(Br)cccc32)nc(N2CCOCC2)cc1=O [Example 116, 2-[2-(4-bromo-2,3-dihydro-1 H-indol-1-yl)-2-oxoethyl]-3-methyl-6-(morpholin-4-yl)pyrimidin-4(3H)-one]
20 | 225 °C | 194 nM | CC1CN(C(=O)Cc2nc(N3CCOCC3)cc(=O)n2C)c2ccccc21 (stereo not drawn) [Example 119, 3-methyl-2-[2-(3-methyl-2,3-dihydro-1H-indol-1-yl)-2-oxoethyl]-6-(morpholin-4-yl)pyrimidin-4(3H)-one]
21 | 148 °C | 77 nM | CC1Cc2ccccc2N1C(=O)Cc1nc(N2CCOCC2)cc(=O)n1C (stereo not drawn) [Example 123, 3-methyl-2-[2-(2-methyl-2,3-dihydro-1H-indol-1-yl)-2-oxoethyl]-6-(morpholin-4-yl)pyrimidin-4(3H)-one]
22 | 235 °C | 42 nM | Cn1c(CC(=O)N2CCc3c(Cl)cccc32)nc(N2CCOCC2)cc1=O [Example 104, 2-[2-(4-chloro-2,3-dihydro-1H-indol-1-yl)-2-oxoethyl]-3-methyl-6-(morpholin-4-yl)pyrimidin-4(3H)-one]
23 | 250 °C | 61 nM | Cn1c(CC(=O)N2CCc3cc(F)c(F)cc32)nc(N2CCOCC2)cc1=O [Example 127, 2-[2-(5,6-difluoro-2,3-dihydro-1H-indol-1-yl)-2-oxoethyl]-3-methyl-6-(morpholin-4-yl)pyrimidin-4(3H)-one]
24 | 254 °C | 70 nM | Cn1c(CC(=O)Nc2cccc3sccc23)nc(N2CCOCC2)cc1=O [Example 130, N-(1-benzothiophen-4-yl)-2-[1-methyl-4-(morpholin-4-yl)-6-oxo-1,6-dihydropyrimidin-2-yl]acetamide]
25 | 229 °C | 278 nM | COc1cccc2c1CCN2C(=O)Cc1nc(N2CCOCC2)cc(=O)n1C [Example 110, 2-[2-(4-methoxy-2,3-dihydro-1H-indol-1-yl)-2-oxoethyl]-3-methyl-6-(morpholin-4-yl)pyrimidin-4(3H)-one]
26 | 238 °C | 195 nM | CCn1c(CC(=O)Nc2ccc(F)cc2)nc(N2CCOCC2)cc1=O [Example 70, 2-[1-ethyl-4-(morpholin-4-yl)-6-oxo-1,6-dihydropyrimidin-2-yl]-N-(4-fluorophenyl)acetamide]
27 | 239 °C | 26 nM | Cc1cccc2c1CCN2C(=O)Cc1nc(N2CCOCC2)cc(=O)n1C [Example 114, 3-methyl-2-[2-(4-methyl-2,3-dihydro-1H-indol-1-yl)-2-oxoethyl]-6-(morpholin-4-yl)pyrimidin-4(3H)-one]
